The text below walks through data of patent publication US20230248695A1, “COMBINATIONS OF CANCER THERAPEUTICS” (Merck Patent GmbH, priority 2020, published 2023).

The test system of data set [1] is RCC patient derived xenografts (PDX). The experiment in a line: In vivo efficacy in sixteen RCC patient derived tumor xenograft models (PDX). Set-up: species or system female NMRI nu/nu mice (human tumor xenografts). To be noted: 16 s.c. RCC PDX models, n = 5 per group; p.o. up to 70 days; Compound A 100 mg/kg QD, axitinib 4 mg/kg BID, cabozantinib 10 mg/kg QD; progression = RTV 173%. For orientation: In xenograft studies the graft and the host belong to different species.
Description: All experiments and protocols were approved by animal welfare body and local authorities, and were conducted according to all applicable international, national and local laws and guidelines. Only animals with unobjectionable health were selected to enter testing procedures. The animals (female NMRI nu/nu mice (NMRI-Foxn1^nu); Envigo RMS GmbH, Netherlands) were delivered at the age of four to six weeks and were used for experiments after at least one week of acclimatization. Animals were arbitrarily numbered during tumor implantation using radio frequency identification transponders. Each cage was labeled with a record card indicating all relevant experimental details.
The tumor xenografts were derived from surgical specimens from human cancer patients. Following excision at surgery, tumor pieces were subcutaneously implanted into immunodeficient mice and are therefore referred to as patient-derived tumor xenografts (PDX). Establishment and characterization of the PDXs was performed following their primary implantation into immunodeficient mice (passage 1). The tumor xenografts were passaged until establishment of a stable growth pattern.
Axitinib: A dosing solution of 0.4 mg/ml for dosing at 4 mg/kg/dose was prepared daily by dissolving 6.4 mg dry matter in 16 ml vehicle and stirring for at least 30 min. If necessary, the solution was sonicated for 2 min.
Cabozantinib: A dosing solution of 1 mg/ml for dosing at 10 mg/kg/dose was prepared directly before administration by slowly adding 0.2 ml 100% propylene glycol to 12 mg cabozantinib. It was stirred vigorously on a magnetic stirrer until a fine suspension with clumps formed, followed by vortexing briefly for 15-20 s. A further 3.4 ml propylene glycol was added and the stirring and vortexing steps were repeated. Then 600 µl 100% Tween 80 was added while stirring continuously followed by vortexing briefly for 15-20 s. The solution was then sonicated for 10 min and 7.8 ml D5W was added while stirring slowly. At this stage the solution was clear with lots of air bubbles. Care was taken to exclude these when drawing the suspension into a syringe for administration of therapy.
The resulting white suspension was stirred for two hours on a magnetic stirrer with a hot plate (Phoenix Instruments, model RSM-10HS) at 50° C. The suspension was brought to room temperature and mixed well each time before transferring to a syringe for dosing.
Tumor cell inoculation: Tumor fragments were obtained from xenografts in serial passage in nude mice. After removal from donor mice, tumors were cut into fragments (3-4 mm edge length) and placed in PBS containing 10% penicillin/streptomycin. Recipient animals were anesthetized by inhalation of isoflurane and received unilateral or bilateral tumor implants subcutaneously in the flank.
Randomization: Animals and tumor implants were monitored daily until solid tumor growth was detectable in a sufficient number of animals. At randomization, the volume of growing tumors was determined. […] Animals not used for experiments where available were used as satellite animals for PD sampling. The day of randomization was designated as day 0 of the experiment. The time from implantation to randomization at a standard tumor volume is expressed in days as “Induction time (IT)”. Induction times of tumors are routinely recorded, and a median IT is calculated for characterization purposes.
Tumor measurements and calculations: Tumor length (L) and width (W) were measured twice weekly by calipers. The tumor volume was calculated using the formula L×W^2/2. Relative volumes of individual tumors (individual RTVs) for Day x were calculated by dividing the absolute individual tumor volume on Day x (Tx) by the absolute individual tumor volume of the same tumor on the day of randomization (Tr) multiplied by 100%.

The conditions of data set [2]: clinical trials; cited from earlier work.

Molecules are shown by their SMILES. “Also recorded” adds a separate entry of the source.

Consider `COc1cc2nccc(Oc3ccc(NC(=O)C4(C(=O)Nc5ccc(F)cc5)CC4)cc3)c2cc1OC` [cabozantinib, N-{4-[(6,7-dimethoxyquinolin-4-yl)oxy]phenyl}-N′-(4-fluorophenyl)cyclopropane-1,1-dicarboxamide], for which the “tumor growth / tumor progression under monotherapy treatment” value (shortened to “tumor growth / tumor progression”) in data set [1] is “progressed under monotherapy treatment; also recorded: did not strongly inhibit tumor growth, and tumors progressed under treatment”.

With `CNC(=O)c1ccccc1Sc1ccc2c(/C=C/c3ccccn3)n[nH]c2c1` [axitinib, N-methyl-2-({3-[(1E)-2-(pyridin-2-yl)ethenyl]-1H-indazol-6-yl}sulfanyl)benzamide], the “tumor growth / tumor progression” value in data set [1] is “progressed under monotherapy treatment; also recorded: did not strongly inhibit tumor growth, and tumors progressed under treatment”.

In the case of `CO[C@@H]1[C@H](OC(=O)/C=C/C=C/C=C/C=C/C(=O)O)CC[C@]2(CO2)[C@H]1[C@@]1(C)O[C@@H]1CC=C(C)C` [fumagillin], in data set [2], the neurotoxicity entry is given as “pronounced neurotoxicity”.

As for `O=C(NCc1cc(F)cc(F)c1)[C@@]1(O)CCN(c2ccc3[nH]ccc3c2)C1=O` [Compound A, (S)-3-Hydroxy-1-(1H-indol-5-yl)-2-oxo-pyrrolidine-3-carboxylic acid 3,5-difluoro-benzylamide], the “tumor growth / tumor progression” value in data set [1] was “progressed under monotherapy treatment; also recorded: did not strongly inhibit tumor growth, and tumors progressed under treatment”.
